US12704504B2, “Derivatization of beta-lactam antibiotics as calibrators/ISTD in massspec measurements” (Roche Diagnostics Operations, Inc., priority 2019, dated 2026)

Assay: Stability in water at room temperature, LC-MS/MS peak areas over 16 h
Assay type: physicochemical
Settings: 5 μg/mL, 0-16 h
Description: The stability of native Piperacillin as well as its hydrolyzed forms was investigated (compounds 5, 9a, 9b and 10, respectively. From the hydrolysis pathway of Piperacillin (compound 5, see schematic drawing in FIG. 1) it is obvious that this compound hydrolyzed both on the piperazin ring and the lactam moiety, only one of both compounds is monitored to account for the loss or degradation of native Piperacillin (compound 5)). To this end, these compounds were freshly weighed and dissolved in water at a concentration of 1 mg/mL by rolling or stirring for 15 minutes at room temperature. Subsequently, these compounds were diluted to 5 μg/mL and measured with a suitable LC-MS/MS method at timepoints 0, 2, 4, 6, 8 and 16 h. For this, a Sunshell C18 (2.6 μm, 2.1 mm×50 mm) column with Solvent A: water with 0.1% HCOOH and Solvent B: CH3CN with 0.1% HCOOH and a flow of 0.6 mL per minute were used on an Agilent Infinity II multisampler/Pump system connected to an AB Sciex 6500+MS. The peaks were integrated using MultiQuant software and the areas of these peaks depicted in the graphs in FIGS. 2A and 2B.
The stability of double butylamide variants of Piperacillin (compound 7, see FIG. 4) was investigated at 2 MRMs using the identical protocol as in Examples 1.

CCN1CCN(C(=O)N[C@@H](C(=O)N[C@@H]2C(=O)N3[C@@H]2SC(C)(C)[C@@H]3C(=O)O)c2ccccc2)C(=O)C1=O [Piperacillin]
course of obtained peak-areas over time: decreasing
